This note sets out measurements from patent US20170253607A1, “LONG-ACTING HIV PROTEASE INHIBITOR” (Shionogi & Co., Ltd., priority 2014, published 2017).

The term IC50 denotes the point on the concentration scale where inhibition reaches its midpoint.

One data set addresses HIV-1 PR (Human immunodeficiency virus type 1 group M subtype B, UniProt P04585). Description: HIV-protease inhibitory activity assay (FRET peptide substrate). Format: biochemical. As to conditions: Test Example 1. The method in brief: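 Inhibition of HIV-1 protease was measured as loss of fluorescence dequenching of a HiLyte Fluor 488/QXL 520 peptide at 2 μmol/L, pH 4.8, room temperature, 60 minute reaction. IC50 was derived by nonlinear four-parameter fitting.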

A short description of data set [1]: Evaluation of total body clearance (CLtot), intravenous administration. Format: in vivo, Sprague-Dawley (SD). As to conditions: rat (SD), intravenous administration 0.5-10 mg/kg; CLtot = dose/AUC. The method in brief:
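Plasma levels quantified by LC/MS/MS after intravenous tail-vein dosing (0.5-10 mg/kg, compound-dependent; n=2-3). AUC from pharmacokinetic analysis; total clearance calculated as dose/AUC.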

As to `COc1ccc(S(=O)(=O)N(CC(C)C)CC(O)C(Cc2ccc(NCc3cc4c(cc3-c3sc5c(c3C(=O)O)CC(C)(C)CC5)OCO4)cc2)NC(=O)OC2COC3(C)OCCC23)cc1` (stereo not drawn) [Compound I-552], half-maximal inhibition on HIV-1 PR (IC50) required 1.41 nM. Moreover, in data set [1], the rat_CLt worked out at 0.985 mL/min/kg.
In the same order, the values of `COc1ccc(S(=O)(=O)N(CC(C)C)CC(O)C(Cc2ccc(NCc3ccc(-c4sc5c(c4C(=O)O)CC(C)(C)CC5)cc3O)cc2)NC(=O)OC2COC3(C)OCCC23)cc1` (stereo not drawn) [Compound I-555] are 1.68 nM and 5.98 mL/min/kg.
In the same order, the values of `COc1ccc(S(=O)(=O)N(CC(C)C)CC(O)C(Cc2ccc(NCc3cc(OC)c(OC)cc3-c3sc4c(c3C(=O)O)CC(C)(C)CC4)cc2)NC(=O)OC2COC3(C)OCCC23)cc1` (stereo not drawn) [Compound I-560] are 1.65 nM and 4.5 mL/min/kg.
Turning to `COc1ccc(S(=O)(=O)N(CC(C)C)CC(O)C(Cc2ccc(NCc3cc(O)ccc3-c3sc4c(c3C(=O)O)CC(C)(C)CC4)cc2)NC(=O)OC2COC3(C)OCCC23)cc1` (stereo not drawn) [Compound I-561], inhibition on HIV-1 PR was half-maximal at 1.35 nM (IC50). The same molecule displayed a rat_CLt in data set [1] of 4.48 mL/min/kg.
In the same order, the values of `COc1ccc(S(=O)(=O)N(CC(C)C)CC(O)C(Cc2ccc(NCc3ccc(Cl)cc3-c3sc4c(c3C(=O)O)CC(C)(C)CC4)cc2)NC(=O)OC2COC3(C)OCCC23)cc1` (stereo not drawn) [Compound I-563] are 2.13 nM and 0.883 mL/min/kg.
On HIV-1 PR, `COc1ccc(S(=O)(=O)N(CC(C)C)CC(O)C(Cc2ccc(NCc3cc(OC)ccc3-c3sc4c(c3C(=O)O)CC(C)(C)CC4)cc2)NC(=O)OC2COC3(C)OCCC23)cc1` (stereo not drawn) [Compound I-566] had an IC50 of 1.61 nM. This molecule returned a rat_CLt in data set [1] of 0.727 mL/min/kg.
`COc1ccc(S(=O)(=O)N(CC(C)C)CC(O)C(Cc2ccc(NCc3cc([N+](=O)[O-])ccc3-c3sc4c(c3C(=O)O)CC(C)(C)CC4)cc2)NC(=O)OC2COC3(C)OCCC23)cc1` (stereo not drawn) [Compound I-567] showed an IC50 against HIV-1 PR of 3.12 nM. This molecule also showed a rat_CLt in data set [1] of 2.81 mL/min/kg.
Take `COc1ccc(S(=O)(=O)N(CC(C)C)CC(O)C(Cc2ccc(NCc3ccccc3NC(=O)c3sc4c(c3C(=O)O)CC(C)(C)CC4)cc2)NC(=O)OC2COC3(C)OCCC23)cc1` (stereo not drawn) [Compound I-574]: half-maximal inhibition against HIV-1 PR (IC50) was put at 2.93 nM. This molecule showed a rat_CLt in data set [1] of 1.01 mL/min/kg.
With `COc1ccc(S(=O)(=O)N(CC(C)C)CC(O)C(Cc2ccc(N3CC(Oc4ccccc4C(=O)Nc4sc5c(c4C(=O)O)CC(C)(C)CC5)C3)cc2)NC(=O)OC2COC3(C)OCCC23)cc1` (stereo not drawn) [Compound I-575], the IC50 on HIV-1 PR worked out at 8.32 nM. In data set [1], this molecule displayed a rat_CLt of 0.267 mL/min/kg.
In the same order, the values of `COc1ccc(S(=O)(=O)N(CC(C)C)CC(O)C(Cc2ccc(N3CCC(Oc4ccccc4-c4sc5c(c4C(=O)O)CC(C)(C)CC5)CC3)cc2)NC(=O)OC2COC3(C)OCCC23)cc1` (stereo not drawn) [Compound I-578] are 2.39 nM and 3.16 mL/min/kg.
For `COc1ccc(S(=O)(=O)N(CC(C)C)CC(O)C(Cc2ccc(N3CCC(Oc4cc(C(F)(F)F)ccc4-c4sc5c(c4C(=O)O)CC(C)(C)CC5)C3)cc2)NC(=O)OC2COC3(C)OCCC23)cc1` (stereo not drawn) [Compound I-579] the same measures were 4.38 nM and 1.66 mL/min/kg.
Turning to `COc1ccc(S(=O)(=O)N(CC(C)C)CC(O)C(Cc2ccc(NCc3ccc(OC)cc3C(=O)Nc3sc4c(c3C(=O)O)CC(C)(C)CC4)cc2)NC(=O)OC2COC3(C)OCCC23)cc1` (stereo not drawn) [Compound I-580], at HIV-1 PR, the IC50 was determined as 3.23 nM. In data set [1], the rat_CLt turned out to be 0.0683 mL/min/kg.
On HIV-1 PR, `COc1ccc(S(=O)(=O)N(CC(C)C)CC(O)C(Cc2ccc(NCc3cc4ccccc4cc3-c3sc4c(c3C(=O)O)CC(C)(C)CC4)cc2)NC(=O)OC2COC3(C)OCCC23)cc1` (stereo not drawn) [Compound I-581] yielded an IC50 of 4.02 nM. Moreover, the rat_CLt in data set [1] came to 0.204 mL/min/kg.
For `COc1ccc(S(=O)(=O)N(CC(C)C)CC(O)C(Cc2ccc(N(C)Cc3cc4ccccc4cc3-c3sc4c(c3C(=O)O)CC(C)(C)CC4)cc2)NC(=O)OC2COC3(C)OCCC23)cc1` (stereo not drawn) [Compound I-582] the same measures were 9.36 nM and 0.179 mL/min/kg.
For `COc1ccc(S(=O)(=O)N(CC(C)C)CC(O)C(Cc2ccc(N(C)Cc3cc(N4CCCC4=O)ccc3-c3sc4c(c3C(=O)O)CC(C)(C)CC4)cc2)NC(=O)OC2COC3(C)OCCC23)cc1` (stereo not drawn) [Compound I-584] the same measures were 2.3 nM and 0.77 mL/min/kg.
For `COc1ccc(S(=O)(=O)N(CC(C)C)CC(O)C(Cc2ccc(N3CCC(Oc4ccccc4C(=O)Nc4sc5c(c4C(=O)O)CC(C)(C)CC5)C3)cc2)NC(=O)OC2COC3(C)OCCC23)cc1` (stereo not drawn) [Compound I-588] the same measures were 3.29 nM and 0.291 mL/min/kg.
Molecule `COc1ccc(S(=O)(=O)N(CC(C)C)CC(O)C(Cc2ccc(NCC3=C(C(=O)Nc4sc5c(c4C(=O)O)CC(C)(C)CC5)CCC3)cc2)NC(=O)OC2COC3(C)OCCC23)cc1` (stereo not drawn) [Compound I-589] registered an IC50 at HIV-1 PR of 3.48 nM. This molecule also returned a rat_CLt in data set [1] of 0.311 mL/min/kg.
In the same order, the values of `COc1ccc(S(=O)(=O)N(CC(C)C)C[C@@H](O)[C@H](Cc2ccc(N3CC[C@H](Oc4ccccc4-n4nc5c(c4C(=O)O)CC(C)(C)CC5)C3)cc2)NC(=O)O[C@H]2CO[C@@]3(C)OCC[C@@H]23)cc1` [Compound I-596] are 1.54 nM and 0.213 mL/min/kg.
The molecule `COc1ccc(S(=O)(=O)N(CC(C)C)CC(O)C(Cc2ccc(NCc3cccc(C)c3-c3sc4c(c3C(=O)O)CC(C)(C)CC4)cc2)NC(=O)OC2COC3(C)OCCC23)cc1` (stereo not drawn) [Compound I-598] returned an IC50 at HIV-1 PR of 2.12 nM. Besides, the rat_CLt in data set [1] came out at 0.532 mL/min/kg.
In turn, `COc1ccc(S(=O)(=O)N(CC(C)C)CC(O)C(Cc2ccc(N(C)Cc3cccc(C)c3-c3sc4c(c3C(=O)O)CC(C)(C)CC4)cc2)NC(=O)OC2COC3(C)OCCC23)cc1` (stereo not drawn) [Compound I-599] showed an IC50 on HIV-1 PR of 2.46 nM. The molecule further gave a rat_CLt in data set [1] of 0.479 mL/min/kg.
Take `CC1(C)CCc2sc(NC(=O)c3ccccc3CNc3ccc(CC(NC(=O)OC4COC5(C)OCCC45)C(O)CN(CC4CCCC4)S(=O)(=O)c4ccc5c(c4)OCO5)cc3)c(C(=O)O)c2C1` (stereo not drawn) [Compound I-600]: the IC50 against HIV-1 PR turned out to be 5.07 nM. Also, the rat_CLt in data set [1] is 0.104 mL/min/kg.
For `CC1(C)CCc2sc(NC(=O)c3ccccc3CNc3ccc(CC(NC(=O)OC4COC5(C)OCCC45)C(O)CN(CC4CCCC4)S(=O)(=O)c4ccc5ncsc5c4)cc3)c(C(=O)O)c2C1` (stereo not drawn) [Compound I-601] the same measures were 3.26 nM and 0.164 mL/min/kg.
For `COc1ccc(S(=O)(=O)N(CC2CCC2)CC(O)C(Cc2ccc(NCc3ccccc3C(=O)Nc3sc4c(c3C(=O)O)CC(C)(C)CC4)cc2)NC(=O)OC2COC3(C)OCCC23)cc1` (stereo not drawn) [Compound I-602] the same measures were 3.67 nM and 0.0667 mL/min/kg.
For `COc1ccc(S(=O)(=O)N(CC(C)C)CC(O)C(Cc2ccc(NC(C)c3ccccc3-c3sc4c(c3C(=O)O)CC(C)(C)CC4)cc2)NC(=O)OC2COC3(C)OCCC23)cc1` (stereo not drawn) [Compound I-603] the same measures were 3.65 nM and 5.83 mL/min/kg.
Consider `COc1ccc(S(=O)(=O)N(CC(C)C)CC(O)C(Cc2ccc(N3CCC(Oc4cc(N(C)C)ccc4-c4sc5c(c4C(=O)O)CC(C)(C)CC5)C3)cc2)NC(=O)OC2COC3(C)OCCC23)cc1` (stereo not drawn) [Compound I-606], for which the IC50 against HIV-1 PR was determined as 2.25 nM. This molecule also showed a rat_CLt in data set [1] of 2.2 mL/min/kg.
In the case of `COc1ccc(S(=O)(=O)N(CC(C)C)CC(O)C(Cc2ccc(NCc3nc(N4CCCC4)sc3-c3sc4c(c3C(=O)O)CC(C)(C)CC4)cc2)NC(=O)OC2COC3(C)OCCC23)cc1` (stereo not drawn) [Compound I-607], half-maximal inhibition at HIV-1 PR (IC50) required 1.8 nM. Moreover, the rat_CLt in data set [1] was 0.797 mL/min/kg.
For `CC1(C)CCc2sc(NC(=O)c3ccccc3CNc3ccc(CC(NC(=O)OC4COC5(C)OCCC45)C(O)CN(CC4CCC4)S(=O)(=O)c4ccc5c(c4)OCO5)cc3)c(C(=O)O)c2C1` (stereo not drawn) [Compound I-613], it took 2.55 nM to reach half-maximal inhibition on HIV-1 PR (IC50). In data set [1], this molecule yielded a rat_CLt of 0.0573 mL/min/kg.
For `COc1ccc(S(=O)(=O)N(CC(C)C)CC(O)C(Cc2ccc(NCC3CCCCC3C(=O)Nc3sc4c(c3C(=O)O)CC(C)(C)CC4)cc2)NC(=O)OC2COC3(C)OCCC23)cc1` (stereo not drawn) [Compound I-614] the same measures were 2.91 nM and 0.146 mL/min/kg.
Turning to `CC1(C)CCc2sc(NC(=O)c3ccccc3CNc3ccc(CC(NC(=O)OC4COC5(C)OCCC45)C(O)CN(CC4CCC4)S(=O)(=O)c4ccc5ncsc5c4)cc3)c(C(=O)O)c2C1` (stereo not drawn) [Compound I-617], on HIV-1 PR, 3.13 nM corresponded to half-maximal inhibition (IC50). This molecule also had a rat_CLt in data set [1] of 0.098 mL/min/kg.
Regarding `COc1ccc(S(=O)(=O)N(CC(C)C)CC(O)C(Cc2ccc(NCc3cc(F)ccc3C(=O)Nc3sc4c(c3C(=O)O)CC(C)(C)CC4)cc2)NC(=O)OC2COC3(C)OCCC23)cc1` (stereo not drawn) [Compound I-625], half-maximal inhibition at HIV-1 PR (IC50) was put at 5.07 nM. Further, the rat_CLt in data set [1] is given as 0.0688 mL/min/kg.
For `CN(Cc1ccccc1C(=O)Nc1sc2c(c1C(=O)O)CC(C)(C)CC2)c1ccc(CC(NC(=O)OC2COC3(C)OCCC23)C(O)CN(CC2CCCC2)S(=O)(=O)c2ccc3ncsc3c2)cc1` (stereo not drawn) [Compound I-636] the same measures were 4.37 nM and 0.372 mL/min/kg.
On to `COc1ccc(S(=O)(=O)N(CC(C)C)CC(O)C(Cc2ccc(NCc3cnc4sccc4c3-c3sc4c(c3C(=O)O)CC(C)(C)CC4)cc2)NC(=O)OC2COC3(C)OCCC23)cc1` (stereo not drawn) [Compound I-648], for which the IC50 against HIV-1 PR was determined as 2.31 nM. In data set [1], this molecule displayed a rat_CLt of 0.783 mL/min/kg.
As to `COc1ccc(S(=O)(=O)N(CC(C)C)CC(O)C(Cc2ccc(NCc3cc4ccsc4nc3-c3sc4c(c3C(=O)O)CC(C)(C)CC4)cc2)NC(=O)OC2COC3(C)OCCC23)cc1` (stereo not drawn) [Compound I-649], the IC50 on HIV-1 PR was found to be 2.25 nM. Besides, the rat_CLt in data set [1] worked out at 0.622 mL/min/kg.
